Data on 7 compounds can be found in US4372877A, “Di(acylperoxy)-1,4-cyclohexane dimethanol-bis-carbonates” (priority 1981, dated 1983).

Data set [1] in a line: Ten-hour half-life temperature (0.1 M in benzene). The class given is physicochemical. The source says: Table I provides the ten-hour half-life of the compounds of the instant invention synthesized in Examples 1-3.
Peroxide (0.1 M in benzene)

Data set [2] can be described thus: Storage stability at 40 °C. More on the design: A.O.: unit not given here. The format is physicochemical. On the procedure:
APCD from Example 1 is selected as representative and was tested over a period of 89 days at 40° C. Representative peroxy carbonate and dicarbonates of the prior art are also included for comparison.
Storage Stability at 40° C.

Data set [3] in a line: Vinyl chloride suspension polymerization (% conversion). As to the method:
As mentioned, the instant bis-carbonates are useful for the initiation of monomers having polymerizable ethylenic or vinyl unsaturation, such as ethylene, styrene, methyl methacrylate and vinyl chloride and copolymers thereof. The data was generated with suspension polymerization performed in 12 ounce pop bottles using uninhibited monomer. Duplicate bottles were analyzed at each time interval for which data is listed. Bottles were frozen before venting off of excess monomer. Mixing speed of the pop bottles was 42 rpm. The water to vinyl chloride monomer ratio was 2.50. Each pop bottle contained 0.35 gms Dow Methocel 90 HG, 100 cps suspension agent per 100 gms vinyl chloride monomer.

A short description of data set [4]: Hot Block Gel Tests With Polyester Resin. The settings on record: block 180 °F, 1% wt peroxide (100% purity basis). The source says: As mentioned above, the new molecules can be used for curing of polyester resins and this utility is illustrated in Tables V and VI below. Typical prior art peroxy dicarbonates and carbonates of the prior art are included for comparison.
Hot Block Gel Tests With Polyester Resin
Resin: MR 941 (U.S.S. Chemical - orthophthalic)
Concentrations of peroxide adjusted to 100% purity basis, 1% wt

The conditions of data set [5]: disclosed in prior art U.S. patents; cited from earlier work.
[6] abbreviates: 55 °C, 5.5 Hrs., 2.01 × 10^-4 moles/100g VCM (APCD 0.070, LPCD 0.126, BPCD 0.095 % wt).
The mark [7] stands for this setting: 55 °C, 5.5 Hrs., 2.30 × 10^-4 moles/100g VCM (APCD 0.080, LPCD 0.145, BPCD 0.109 % wt).
The mark [8] stands for this setting: 60 °C, 5.0 Hrs., 1.15 × 10^-4 moles/100g VCM (APCD 0.040, LPCD 0.072, BPCD 0.054 % wt).
[9] abbreviates: 60 °C, 5.0 Hrs., 1.45 × 10^-4 moles/100g VCM (APCD 0.051, LPCD 0.091 % wt).

With `CC(=O)OOC(=O)OCC1CCC(COC(=O)OOC(C)=O)CC1` (stereo not drawn) [APCD, di(acetylperoxy)-1,4-cyclohexane dimethanol bis-carbonate], the “Ten-Hour Half-Life Temperature” value in data set [1] stood at 55.2 °C. Also, the “% Purity” value in data set [2] (0 days elapsed) amounted to 99.6%; in data set [2] (7 days elapsed), 99.5%; in data set [2] (14 days elapsed), 98.3%; in data set [2] (28 days elapsed), 97.7%; in data set [2] (59 days elapsed), 95.4%; in data set [2] (89 days elapsed), 93.4%. For the same compound, the A.O. in data set [2] (0 days elapsed) is recorded as 9.15; in data set [2] (7 days elapsed) it was 9.14; in data set [2] (14 days elapsed) it was 9.03; in data set [2] (28 days elapsed) it was 8.98; in data set [2] (59 days elapsed) it was 8.77; in data set [2] (89 days elapsed), 8.58. The “% Conversion” value in data set [3] (55 °C, 1.5 Hrs., 2.23 × 10^-4 moles/100g VCM (APCD 0.0775 % wt)) is 13.6%; in data set [3] (55 °C, 3.5 Hrs., 2.23 × 10^-4 moles/100g VCM (APCD 0.0775 % wt)), 42.0%; in data set [3] (55 °C, 5.5 Hrs., 0.85 × 10^-4 moles/100g VCM (APCD 0.030 % wt)), 35.7%; in data set [3] (55 °C, 5.5 Hrs., 1.15 × 10^-4 moles/100g VCM (APCD 0.040 % wt)), 45.6%; in data set [3] (55 °C, 5.5 Hrs., 1.45 × 10^-4 moles/100g VCM (APCD 0.051 % wt)), 55.7%; in data set [3] (55 °C, 5.5 Hrs., 1.72 × 10^-4 moles/100g VCM (APCD 0.060, BPCD 0.081 % wt)), 60.5%. Moreover, the “% Conversion” value in data set [3] (setting [6]) was 71.5%; in data set [3] (55 °C, 5.5 Hrs., 2.23 × 10^-4 moles/100g VCM (APCD 0.0775 % wt)) it was 80.3%; in data set [3] (setting [7]), 83.0%; in data set [3] (60 °C, 1.5 Hrs., 1.36 × 10^-4 moles/100g VCM (APCD 0.0475 % wt)), 15.1%; in data set [3] (60 °C, 3.5 Hrs., 1.36 × 10^-4 moles/100g VCM (APCD 0.0475 % wt)), 46.9%; in data set [3] (60 °C, 5.0 Hrs., 0.85 × 10^-4 moles/100g VCM (APCD 0.030, BPCD 0.040 % wt)), 48.5%. Besides, the “% Conversion” value is 65.9% in data set [3] (setting [8]); 83.1% in data set [3] (60 °C, 5.0 Hrs., 1.36 × 10^-4 moles/100g VCM (APCD 0.0475 % wt)); 86.6% in data set [3] (setting [9]). Besides, the “Exotherm Time” value in data set [4] (Table V) is 4.05 min; in data set [4] (Table VI), 4.20 min. Further, the “Gel Time” value is 3.38 min in data set [4] (Table V) and 3.58 min in data set [4] (Table VI).
As for `O=C(OOC(=O)OC1CCCCCCCCCCC1)OC1CCCCCCCCCCC1` [dicyclododecyl peroxy dicarbonate], the “stability at room/ambient temperature” value in data set [5] is listed as “stability that permits storage at room temperature”.
Take `CC(C)(C)C1CCC(OC(=O)OOC(=O)OC2CCC(C(C)(C)C)CC2)CC1` (stereo not drawn) [Di(4-t-butylcyclohexyl) peroxydicarbonate]: the “Ten-Hour Half-Life Temperature” value in data set [1] is 43.0 °C. Also, the “% Purity” value is given as 97.8% in data set [2] (0 days elapsed); 96.4% in data set [2] (7 days elapsed); 96.4% in data set [2] (14 days elapsed); 95.2% in data set [2] (28 days elapsed); 93.0% in data set [2] (59 days elapsed); 93.2% in data set [2] (89 days elapsed). For the same compound, the A.O. stood at 3.92 in data set [2] (0 days elapsed); 3.86 in data set [2] (7 days elapsed); 3.86 in data set [2] (14 days elapsed); 3.82 in data set [2] (28 days elapsed); 3.73 in data set [2] (59 days elapsed); 3.74 in data set [2] (89 days elapsed). The “Exotherm Time” value in data set [4] (Table V) is 3.39 min; in data set [4] (Table VI), 3.58 min. Moreover, the “Gel Time” value in data set [4] (Table V) was found to be 2.46 min; in data set [4] (Table VI), 2.74 min.
As for `CC(C)(COC(=O)OOC(=O)OCC(C)(C)c1ccccc1)c1ccccc1` [di(2-methyl-2-phenylpropyl) peroxy dicarbonate], the “stability at room/ambient temperature” value in data set [5] is given as “ambient temperature stability”.
With `O=C(OCCOc1ccccc1)OOC(=O)OCCOc1ccccc1` [di(phenoxyethyl) peroxydicarbonate], in data set [1], the “Ten-Hour Half-Life Temperature” value was 42.2 °C. Further, the “% Purity” value in data set [2] (0 days elapsed) amounted to 97.4%; in data set [2] (7 days elapsed) it was 94.4%; in data set [2] (14 days elapsed) it was 93.3%; in data set [2] (28 days elapsed) it was 91.1%; in data set [2] (59 days elapsed), 84.7%; in data set [2] (89 days elapsed) it was 73.1%. Further, the A.O. in data set [2] (0 days elapsed) came to 4.31; in data set [2] (7 days elapsed), 4.17; in data set [2] (14 days elapsed), 4.12; in data set [2] (28 days elapsed), 4.03; in data set [2] (59 days elapsed), 3.74; in data set [2] (89 days elapsed), 3.23. The “Exotherm Time” value in data set [4] (Table V) was 5.62 min. The “Gel Time” value in data set [4] (Table V) amounted to 5.45 min.
Regarding `CCCCCCCCCCCCCCCCCCOC(=O)OOC(C)=O` [acetyl peroxystearyl carbonate], the “% Purity” value in data set [2] (0 days elapsed) amounted to 94.1%; in data set [2] (7 days elapsed), 93.5%; in data set [2] (14 days elapsed), 93.1%; in data set [2] (28 days elapsed), 91.5%; in data set [2] (59 days elapsed), 87.9%; in data set [2] (89 days elapsed) it was 78.8%. The A.O. is 4.04 in data set [2] (0 days elapsed); 4.01 in data set [2] (7 days elapsed); 4.00 in data set [2] (14 days elapsed); 3.92 in data set [2] (28 days elapsed); 3.77 in data set [2] (59 days elapsed); 3.38 in data set [2] (89 days elapsed). In addition, in data set [4] (Table V), the “Exotherm Time” value was determined as 4.05 min. In addition, in data set [4] (Table V), the “Gel Time” value was 3.13 min.
Consider `CCCCCCCCCCCC(=O)OOC(=O)OCC1CCC(COC(=O)OOC(=O)CCCCCCCCCCC)CC1` (stereo not drawn) [LPCD, di(lauroylperoxy)-1,4-cyclohexane dimethanol bis-carbonate], for which the “Ten-Hour Half-Life Temperature” value in data set [1] was 51.4 °C. Moreover, the “% Conversion” value is 60.9% in data set [3] (setting [6]), 72.0% in data set [3] (setting [7]), 51.4% in data set [3] (setting [8]) and 65.4% in data set [3] (setting [9]). For the same compound, the “Exotherm Time” value in data set [4] (Table VI) came out at 4.96 min. Further, the “Gel Time” value in data set [4] (Table VI) amounted to 4.05 min.
